Measurements reported in the NIST ThermoML archive (doi:10.1021/je800150h).

Experiment: mn = molality of the nth substance listed, in mol/kg
Conditions: 101 kPa, Liquid; for electrical conductivity: CyberScan CON500 conductivity meter

[Cl-].[Li+] [lithium chloride] + CCO
Conditions | electrical conductivity [S/m] | mass density [kg/m3] | viscosity [mPa·s]
268.1 K, m1 = 0.196 | 0.117 | 810.9 | 2.208
268.1 K, m1 = 0.391 | 0.197 | 817.9 | 2.546
268.1 K, m1 = 0.782 | 0.269 | 828.4 | 3.283
268.1 K, m1 = 1.173 | 0.3 | 838.1 | 4.167
268.1 K, m1 = 1.76 | 0.305 | 854.5 | 5.819
268.1 K, m1 = 2.347 | 0.276 | 869.4 | 9.082
268.1 K, m1 = 3.129 | 0.222 | 887.7 | 14.96
268.1 K, m1 = 3.911 | 0.162 | 907.8 | 25.44
273.1 K, m1 = 0.196 | 0.13 | 805.1 | 2.043
273.1 K, m1 = 0.391 | 0.221 | 810.6 | 2.313
273.1 K, m1 = 0.782 | 0.3 | 821.3 | 2.943
273.1 K, m1 = 1.173 | 0.335 | 832.5 | 3.722
273.1 K, m1 = 1.76 | 0.343 | 847 | 5.158
273.1 K, m1 = 2.347 | 0.315 | 863.1 | 7.821
273.1 K, m1 = 3.129 | 0.258 | 882.4 | 12.71
273.1 K, m1 = 3.911 | 0.198 | 901.1 | 21.16
278.1 K, m1 = 0.196 | 0.144 | 803.2 | 1.863
278.1 K, m1 = 0.391 | 0.245 | 810.3 | 2.099
278.1 K, m1 = 0.782 | 0.336 | 821.5 | 2.638
278.1 K, m1 = 1.173 | 0.383 | 834.1 | 3.323
278.1 K, m1 = 1.76 | 0.394 | 845.5 | 4.57
278.1 K, m1 = 2.347 | 0.362 | 864.5 | 6.735
278.1 K, m1 = 3.129 | 0.3 | 883.6 | 10.78
278.1 K, m1 = 3.911 | 0.238 | 902.1 | 17.62
283.1 K, m1 = 0.196 | 0.158 | 796.1 | 1.695
283.1 K, m1 = 0.391 | 0.27 | 800.9 | 1.908
283.1 K, m1 = 0.782 | 0.37 | 812.2 | 2.366
283.1 K, m1 = 1.173 | 0.441 | 823.4 | 2.959
283.1 K, m1 = 1.76 | 0.445 | 837.4 | 4.045
283.1 K, m1 = 2.347 | 0.417 | 854.2 | 5.802
283.1 K, m1 = 3.129 | 0.348 | 875.7 | 9.203
283.1 K, m1 = 3.911 | 0.276 | 891.8 | 14.68
288.15 K, m1 = 0.196 | 0.172 | 789.7 | 1.495
288.15 K, m1 = 0.391 | 0.295 | 795.9 | 1.715
288.15 K, m1 = 0.782 | 0.415 | 807.5 | 2.1
288.15 K, m1 = 1.173 | 0.477 | 817.5 | 2.603
288.15 K, m1 = 1.76 | 0.505 | 831.6 | 3.546
288.15 K, m1 = 2.347 | 0.472 | 849.1 | 4.988
288.15 K, m1 = 3.129 | 0.396 | 868.4 | 7.807
288.15 K, m1 = 3.911 | 0.322 | 886.9 | 12.34
293.15 K, m1 = 0.196 | 0.188 | 786 | 1.357
293.15 K, m1 = 0.391 | 0.325 | 791.9 | 1.524
293.15 K, m1 = 0.782 | 0.459 | 803.3 | 1.869
293.15 K, m1 = 1.173 | 0.533 | 813.6 | 2.307
293.15 K, m1 = 1.76 | 0.565 | 828.8 | 3.124
293.15 K, m1 = 2.347 | 0.529 | 845.4 | 4.395
293.15 K, m1 = 3.129 | 0.45 | 864.7 | 6.784
293.15 K, m1 = 3.911 | 0.367 | 883.4 | 10.56
298.15 K, m1 = 0.196 | 0.231 | 782.4 | 1.218
298.15 K, m1 = 0.391 | 0.354 | 788.3 | 1.412
298.15 K, m1 = 0.782 | 0.506 | 799.4 | 1.677
298.15 K, m1 = 1.173 | 0.589 | 810.3 | 2.057
298.15 K, m1 = 1.76 | 0.629 | 823.8 | 2.767
298.15 K, m1 = 2.347 | 0.6 | 842.3 | 3.869
298.15 K, m1 = 3.129 | 0.514 | 861.9 | 5.908
298.15 K, m1 = 3.911 | 0.427 | 880.5 | 9.071
303.15 K, m1 = 0.196 | 0.25 | 776.5 | 1.089
303.15 K, m1 = 0.391 | 0.384 | 782.5 | 1.306
303.15 K, m1 = 0.782 | 0.554 | 794.7 | 1.527
303.15 K, m1 = 1.173 | 0.649 | 804.8 | 1.846
303.15 K, m1 = 1.76 | 0.697 | 819.5 | 2.469
303.15 K, m1 = 2.347 | 0.67 | 837.1 | 3.436
303.15 K, m1 = 3.129 | 0.575 | 856.7 | 5.171
303.15 K, m1 = 3.911 | 0.487 | 875.4 | 7.924
308.15 K, m1 = 0.196 | 0.27 | 773.8 | 1.006
308.15 K, m1 = 0.391 | 0.42 | 779.7 | 1.129
308.15 K, m1 = 0.782 | 0.605 | 791.2 | 1.369
308.15 K, m1 = 1.173 | 0.711 | 802.3 | 1.671
308.15 K, m1 = 1.76 | 0.772 | 816.6 | 2.223
308.15 K, m1 = 2.347 | 0.746 | 835.6 | 3.077
308.15 K, m1 = 3.129 | 0.644 | 854.7 | 4.578
308.15 K, m1 = 3.911 | 0.551 | 873.6 | 6.884
313.15 K, m1 = 0.196 | 0.289 | 773 | 0.928
313.15 K, m1 = 0.391 | 0.447 | 779 | 1.046
313.15 K, m1 = 0.782 | 0.652 | 790.7 | 1.267
313.15 K, m1 = 1.173 | 0.773 | 801.9 | 1.524
313.15 K, m1 = 1.76 | 0.852 | 815.8 | 2.01
313.15 K, m1 = 2.347 | 0.822 | 835.2 | 2.762
313.15 K, m1 = 3.129 | 0.712 | 854.7 | 4.089
313.15 K, m1 = 3.911 | 0.624 | 873.7 | 6.076
318.15 K, m1 = 0.196 | 0.309 | 772.2 | 0.866
318.15 K, m1 = 0.391 | 0.48 | 778.6 | 0.968
318.15 K, m1 = 0.782 | 0.708 | 790.9 | 1.164
318.15 K, m1 = 1.173 | 0.843 | 801.8 | 1.414
318.15 K, m1 = 1.76 | 0.931 | 816.8 | 1.842
318.15 K, m1 = 2.347 | 0.91 | 834.9 | 2.538
318.15 K, m1 = 3.129 | 0.792 | 853.9 | 3.735
318.15 K, m1 = 3.911 | 0.697 | 874 | 5.603
323.15 K, m1 = 0.196 | 0.327 | 768.7 | 0.807
323.15 K, m1 = 0.391 | 0.512 | 774.3 | 0.884
323.15 K, m1 = 0.782 | 0.762 | 786.1 | 1.07
323.15 K, m1 = 1.173 | 0.911 | 796.6 | 1.285
323.15 K, m1 = 1.76 | 1.02 | 811 | 1.677
323.15 K, m1 = 2.347 | 0.998 | 830.4 | 2.335
323.15 K, m1 = 3.129 | 0.875 | 851.3 | 3.437
323.15 K, m1 = 3.911 | 0.783 | 869.4 | 5.009
